Data set [1] deals with SUDHL5 cells. Put plainly: Antiproliferation assay (CellTiter-Glo, 72 h), SUDHL5. The class given is cell-based. The conditions noted are these: IC50, median, SUDHL5, 72 h, read-out: Antiproli SUDHL5 [M] (median). The gist of the method:
(§1)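 CellTiter-Glo luminescence readout; 72 h compound exposure, 37 °C, humidified; rim wells excluded; time-zero reference plate plated in parallel and read identically.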

The test system of another data set is DMS-114 cells. Nature of the data set: Antiproliferation assay (CellTiter-Glo, 72 h), DMS-114. The following applies: Homo sapiens, DMS-114, 72 h; read-out: Antiproli DMS-114 [M] median. The class given is cell-based. The method, then: (§2) Assessment of the Anti-Proliferative Effect of Compounds in Different Cell Lines
(§3) The impact of compounds on the proliferation of different cell lines was assessed using the CellTiter-Glo® Luminescent Cell Viability reagent from Promega (G7573).
(§4) In parallel, cells were plated in a reference (day 0) plate for time zero determination.
(§5) Rim wells were excluded. The cells were incubated for 72 h hours in a humidified incubator at 37° C. The day 0 plate was measured by adding 30 μL/well of CTG solution (CellTiter-Glo® Luminescent Cell Viability reagent, Promega G7573) to time zero wells in the reference plate followed by a 10 minutes incubation and luminescence reading at 0.1 ms. using the PHERAstar FS microplate reader (BMG Labtech).
(§6) After 72 h incubation, the treated plates were measured in the same way as the day 0 plate mentioned above.
(In ATP-based viability assays light output follows the ATP content of the culture.)

Data set [2] has as its system SUDHL5 cells. Nature of the data set: Induction of cytotoxicity (CellTiter-Glo, 5 h), SUDHL5. The following applies: SUDHL5, 5 h.
For data set [3], the system named is SUDHL10 cells. Nature of the data set: Induction of caspase-3/7 activity (Caspase-Glo 3/7), SUDHL10. The data set is classed as cell-based. The conditions noted are these: Homo sapiens, SU-DHL10, 3 h, EC50, median; SUDHL10, 3 h treatment. The gist of the method: (§7)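 Caspase-Glo 3/7 luminescence after 3 h compound treatment, 37 °C, humidified; medium-only background subtracted; rim wells excluded.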

A further data set concerns AMO-1 cells. Put plainly: Antiproliferation assay (CellTiter-Glo, 72 h), AMO-1. The class given is cell-based. The conditions noted are these: Homo sapiens, AMO1, 72 h, IC50, median; AMO-1, 72 h; read-out: Antiproli AMO-1 [M] median. A digest of the protocol:
as §1

Data set [4] concerns SUDHL5 cells. Nature of the data set: Induction of caspase-3/7 activity (Caspase-Glo 3/7), SUDHL5. The data set is classed as cell-based. The conditions noted are these: EC50, median, SUDHL5, 3 h treatment. The gist of the method:
as §7

In a further data set the test system is SNU-389 cells. Nature of the data set: Antiproliferation assay (CellTiter-Glo, 72 h), SNU-389. The data set is classed as cell-based. The following applies: 72 h; read-out: Antiproli SNU-389 [M] median. The method, then: as §2, §3, §4, §5, §6
Data set [5] has as its system SUDHL10 cells. Nature of the data set: Induction of cytotoxicity (CellTiter-Glo, 5 h), SUDHL10. The following applies: Homo sapiens, SU-DHL10, 5 h, read-out: Cytotox SUDHL10 [M] (median), IC50, median; SUDHL10, 5 h.
Procedure: Therefore, cytotoxicity assays were run in parallel in SUDHL5 and SUDHL10 cells.
The different cell lines were plated in culture medium (RPMI 1640 [GIBCO #22400-089] supplemented with 10% Fetal Bovine Serum) at a density of 3,300 cells in 30 μL/well in a sterile, solid black, flat bottom, polystyrene, TC-treated 384-well microplate (Corning #3571) using Multidrop Combi Reagent Dispenser. As a control, medium without cells was also added to the plate. Cells were incubated in a humidified incubator at 37° C. overnight. […] Rim wells were excluded. The cells were incubated for 5 h hours in a humidified incubator at 37° C. After this incubation, 30 μL of CellTiter-Glo® Luminescent Cell Viability reagent (Promega, G7573) was added to each well using the Multidrop Combi Reagent Dispenser, followed by 15 min incubation on a shaker at room temperature. Finally, luminescence was read at 0.1 ms, with a gain of 3000 using the PHERAstar FS microplate reader (BMG Labtech).
Another data set relates to HMC-1-8 cells. Nature of the data set: Antiproliferation assay (CellTiter-Glo, 72 h), HMC-1-8. The class given is cell-based. The conditions noted are these: 72 h, IC50, median; HMC-1-8, 72 h; read-out: Antiproli HMC-1-8 [M] median. A digest of the protocol:
as §1

Setting [6] is: Homo sapiens, SU-DHL-5, 5 h, read-out: Cytotox SUDHL5 [M] (median), IC50, median.

The source of these data is US11478451B1, “Macrocyclic chlorine substituted indole derivatives” (Bayer Aktiengesellschaft, priority 2017, dated 2022).

Structures can show the parent of a compound that is named as a salt. Where two headings read alike, the source gives them in different places.

On to `Cc1c2c(nn1C)CN(CC(F)(F)F)CCCCn1c(C(=O)O)c(CCCOc3cccc4cc(F)ccc34)c3ccc(Cl)c-2c31` (single isomer, unassigned; enantiomer 1) [Example 59, 4-chloro-7-{3-[(6-fluoronaphthalen-1-yl)oxy]propyl}-2,3-dimethyl-14-(2,2,2-trifluoroethyl)-10,11,12,13,14,15-hexahydro-2H-pyrazolo[3′,4′:8,9][1,6]diazacycloundecino[10,11,1-hi]indole-8-carboxylic acid—Enantiomer 1], for which the IC50 with SUDHL5 cells [1] is 1.1e-06 M; in the data set on DMS-114 cells, 3.21e-06 M; in the data set on SUDHL5 cells [2] (read-out: Cytotox SUDHL5 [M] (median), IC50, median), 8e-07 M; with AMO-1 cells, 1.5e-06 M; in the data set with SNU-389 cells it was 3.79e-06 M; in the data set on SUDHL10 cells [5] it was 1.2e-06 M. Moreover, the EC50 – broadly, the midpoint of the concentration-response curve – with SUDHL10 cells [3] is 1000 nM; with SUDHL5 cells [4] it was 350 nM.

For the molecule `CCOC(=O)c1c(CCCOc2cccc3cc(F)ccc23)c2ccc(Cl)c3c2n1C[C@@H]1C[C@@H]1COCc1nn(C)c(CC)c1-3` (single isomer, unassigned), the ring closure, yield of all isomers (from CCOC(=O)c1[nH]c2c(-c3c(COC[C@H]4C[C@H]4CO)nn(C)c3CC)c(Cl)ccc2c1CCCOc1cccc2cc(F)ccc12, amine bond, PPh3/di-tert-butyl azodicarboxylate (Mitsunobu), THF, 24.7 mM) was determined as 84.6%.

Molecule `CCOC(=O)c1c(CCCOc2cccc3cc(F)ccc23)c2ccc(Cl)c3c2n1CC(F)(F)CCOCc1nn(C)c(C)c1-3` registered a ring closure, yield of all isomers (from CCOC(=O)c1[nH]c2c(-c3c(COCCC(F)(F)CO)nn(C)c3C)c(Cl)ccc2c1CCCOc1cccc2cc(F)ccc12, amine bond, triphenylphosphine / di-tert-butyl azodicarboxylate, THF, 32.0 h) of 46.9%.

Molecule `CCOC(=O)c1c(CCCOc2cccc3ccccc23)c2ccc(Cl)c3c2n1CCC1(CC1)COCc1nn(C)c(CC)c1-3` yielded a ring closure, yield of all isomers (from CCOC(=O)c1[nH]c2c(-c3c(COCC4(CCO)CC4)nn(C)c3CC)c(Cl)ccc2c1CCCOc1cccc2ccccc12, amine bond, triphenylphosphine / diisopropyl azodicarboxylate, THF, 98.3 mM) of 87.9%.

With `CCOC(=O)c1c(CCCOc2cccc3cc(F)ccc23)c2ccc(Cl)c3c2n1CCCCNCc1nn(C)c(C)c1-3`, where the note is “from CCOC(=O)c1c(CCCOc2cccc3cc(F)ccc23)c2ccc(Cl)c(-c3c(CBr)nn(C)c3C)c2n1CCCCN, amine bond, Cs2CO3, DMF, 205.0 mM, 60.0 °C”, the ring closure, yield of all isomers was found to be 6.6%.

Consider `CCc1c2c(nn1C)CN(CCOC)CCCCn1c(C(=O)O)c(CCCOc3cccc4cc(F)ccc34)c3ccc(Cl)c-2c31` (single isomer, unassigned; enantiomer 2) [Example 133, 4-chloro-3-ethyl-7-{3-[(6-fluoronaphthalen-1-yl)oxy]propyl}-14-(2-methoxyethyl)-2-methyl-10,11,12,13,14,15-hexahydro-2H-pyrazolo[3′,4′:8,9][1,6]diazacycloundecino[10,11,1-hi]indole-8-carboxylic acid N-ethylethanamine salt (Enantiomer 2)], for which the IC50 in the data set on DMS-114 cells is 3.85e-07 M; with SNU-389 cells, 4.97e-07 M; in the data set on HMC-1-8 cells, 1e-06 M.

On to `CCc1c2c(nn1C)CN(CCC1CCOCC1)CCCCn1c(C(=O)O)c(CCCOc3cccc4cc(F)ccc34)c3ccc(Cl)c-2c31` (single isomer, unassigned; enantiomer 1) [Example 136, 4-chloro-3-ethyl-7-{3-[(6-fluoronaphthalen-1-yl)oxy]propyl}-2-methyl-14-[2-(oxan-4-yl)ethyl]-10,11,12,13,14,15-hexahydro-2H-pyrazolo[3′,4′:8,9][1,6]diazacycloundecino[10,11,1-hi]indole-8-carboxylic acid N-ethylethanamine salt (Enantiomer 1)], for which the IC50 with DMS-114 cells was 2.35e-07 M; in the data set on SNU-389 cells, 3.85e-07 M; with HMC-1-8 cells, 7.3e-07 M.

Regarding `CCc1nn(C)c2c1-c1c(Cl)ccc3c(CCCOc4cccc5cc(F)ccc45)c(C(=O)O)n(c13)CCOCCC2` [Example 125, (rac)-4-chloro-3-ethyl-7-{3-[(6-fluoro-1-naphthyl)oxy]propyl}-1-methyl-1,10,11,13,14,15-hexahydropyrazolo[4′,3′:7,8][1,4]oxazacycloundecino[6,5,4-hi]indole-8-carboxylic acid], the IC50 in the data set on SUDHL5 cells [1] (Homo sapiens, SU-DHL-5, 72 h) is 7.9e-06 M; in the data set with SUDHL5 cells [2] (setting [6]), 1.3e-06 M; in the data set on AMO-1 cells it was 1.9e-06 M; in the data set on SUDHL10 cells [5] it was 5.4e-06 M. The same molecule returned a ring closure, yield of all isomers (from CCOC(=O)c1[nH]c2c(-c3c(CC)nn(C)c3CCCOCCO)c(Cl)ccc2c1CCCOc1cccc2cc(F)ccc12, amine bond, NaH, DMF, 55.64 mM, 40.0 °C, 3 steps) of 76.1%. Further, the EC50 with SUDHL10 cells [3] was 4600 nM; in the data set with SUDHL5 cells [4] (Homo sapiens, SU-DHL-5, 3 h), 1400 nM.

`CCOC(=O)c1c(CCCOc2cccc3cc(F)ccc23)c2ccc(Cl)c3c2n1CCCCN(C)Cc1nn(C)c(CC)c1-3`: the ring closure, yield of all isomers (from CCOC(=O)c1c(CCCOc2cccc3cc(F)ccc23)c2ccc(Cl)c(-c3c(CBr)nn(C)c3CC)c2n1CCCCNC, amine bond, cesium carbonate, DMF, 214.0 mM, 60.0 °C) turned out to be 22%.

Take `CCOC(=O)c1c(CCCOc2cccc3cc(F)ccc23)c2ccc(Cl)c3c2n1CCN(S(=O)(=O)c1ccccc1[N+](=O)[O-])CCCc1nn(C)c(CC)c1-3`: the ring closure, yield of all isomers (from CCOC(=O)c1[nH]c2c(-c3c(CCCN(CCOS(C)(=O)=O)S(=O)(=O)c4ccccc4[N+](=O)[O-])nn(C)c3CC)c(Cl)ccc2c1CCCOc1cccc2cc(F)ccc12, amine bond, NaH, DMF, 56.65 mM, 40.0 °C) came to 70.4%.

For the setting “from CCOC(=O)c1[nH]c2c(-c3c(COCC4(CCO)CC4)nn(C)c3CC)c(Cl)ccc2c1CCCOc1cccc2cc(F)ccc12, amine bond, PPh3/di-tert-butyl azodicarboxylate (Mitsunobu), THF, 83.2 mM”, `CCOC(=O)c1c(CCCOc2cccc3cc(F)ccc23)c2ccc(Cl)c3c2n1CCC1(CC1)COCc1nn(C)c(CC)c1-3` showed a ring closure, yield of all isomers of 86.6%.

On to `CCc1c2c(nn1C)CN(C)CCCCn1c(C(=O)O)c(CCCOc3cccc4ccccc34)c3ccc(Cl)c-2c31` (single isomer, unassigned; enantiomer 1) [Example 23, 4-chloro-3-ethyl-2,14-dimethyl-7-[3-(naphthalen-1-yloxy)propyl]-10,11,12,13,14,15-hexahydro-2H-pyrazolo[3′,4′:8,9][1,6]diazacycloundecino[10,11,1-hi]indole-8-carboxylic acid (Enantiomer 1)], for which the IC50 in the data set with DMS-114 cells came out at 2.06e-06 M; in the data set on AMO-1 cells, 6.1e-07 M; with SNU-389 cells, 1.7e-06 M; in the data set with HMC-1-8 cells it was 5.2e-06 M. For the same molecule, the EC50 in the data set with SUDHL10 cells [3] worked out at 180 nM.

As to `CCOC(=O)c1c(CCCOc2cccc3cc(F)ccc23)c2ccc(Cl)c3c2n1CCC(F)(F)COCc1nn(C)c(CC)c1-3`, the ring closure, yield of all isomers (from CCOC(=O)c1[nH]c2c(-c3c(COCC(F)(F)CCO)nn(C)c3CC)c(Cl)ccc2c1CCCOc1cccc2cc(F)ccc12, amine bond, triphenylphosphine / di-tert-butyl azodicarboxylate, THF) is 72.9%.

As for `CCc1c2c(nn1C)CCCOCCn1c(C(=O)O)c(CCCOc3cccc4cc(F)ccc34)c3ccc(Cl)c-2c31` (racemic) [Example 124, (rac)-4-chloro-3-ethyl-7-{3-[(6-fluoro-1-naphthyl)oxy]propyl}-2-methyl-2,10,11,13,14,15-hexahydropyrazolo[4′,3′:7,8][1,4]oxazacycloundecino[6,5,4-hi]indole-8-carboxylic acid], the IC50 with SUDHL5 cells [1] (Homo sapiens, SU-DHL-5, 72 h) stood at 4.4e-06 M; in the data set with SUDHL5 cells [2] (setting [6]), 1.1e-06 M; in the data set with AMO-1 cells it was 8.3e-07 M; in the data set on SUDHL10 cells [5] it was 2.4e-06 M; in the data set on HMC-1-8 cells, 7e-06 M. The molecule also returned a ring closure, yield of all isomers (from CCOC(=O)c1[nH]c2c(-c3c(CCCOCCO)nn(C)c3CC)c(Cl)ccc2c1CCCOc1cccc2cc(F)ccc12, amine bond, NaH, DMF, 47.5 mM, 40.0 °C, 3 steps) of 63.1%. For the same molecule, the EC50 in the data set with SUDHL10 cells [3] stood at 1800 nM; in the data set on SUDHL5 cells [4] (Homo sapiens, SU-DHL-5, 3 h), 950 nM.

The molecule `CCOC(=O)c1c(CCCO[Si](C)(C)C(C)(C)C)c2ccc(Cl)c3c2n1CCCCCCc1nn(C)c(CC)c1-3` returned a ring closure, yield of all isomers (from CCOC(=O)c1[nH]c2c(-c3c(CCCCCCBr)nn(C)c3CC)c(Cl)ccc2c1CCCO[Si](C)(C)C(C)(C)C, amine bond, Cs2CO3, DMF, 71.8 mM) of 99.5%.

For `CCOC(=O)c1c(CCCOc2cccc3ccccc23)c2ccc(Cl)c3c2n1CC(F)(F)C(F)(F)COCc1nn(C)c(C)c1-3`, where the note is “from CCOC(=O)c1[nH]c2c(-c3c(COCC(F)(F)C(F)(F)COS(C)(=O)=O)nn(C)c3C)c(Cl)ccc2c1CCCOc1cccc2ccccc12, amine bond, Cs2CO3, DMF, 2.12 mM”, the ring closure, yield of all isomers is 7.6%.
